Literature values in patent US10398705B2, “Pharmaceutical tablet formulation for the veterinary medical sector, method of production and use thereof” (BOEHRINGER INGELHEIM VETMEDICA GMBH, priority 2012, dated 2019).

Conditions: known property; background description

solubility | SMILES
poor and pH-dependent solubility | COc1ccc(-c2nc3ccc(C4=NNC(=O)CC4C)cc3[nH]2)cc1 (racemic) [pimobendan, (RS)-6-[2-(4-methoxyphenyl)-1H-benzimidazol-5-yl]-5-methyl-4,5-dihydropyridazin-3(2H)-one]
well water-soluble | CCOC(=O)[C@H](CCc1ccccc1)N[C@H]1CCc2ccccc2N(CC(=O)O)C1=O (relative stereo) [benazepril, [S—(R*,R*J]-3-[[1-(ethoxycarbonyl)-3-phenylpropyl]amino]-2,3,4,5-tetrahydro-2-oxo-1H-1-benzazepin-1-acetic acid]
